Measurements published in PubChem BioAssay AID1918994 (Molecular Pharmacology Branch, DTP, NCI, 2023).

Test system: 292921-168-R-J2-PDC complex spheroid growth
Assay: Anticancer human tumor 292921-168-R-J2-PDC patient-derived pancreatic carcinoma cell line growth inhibition [AhR]
Conditions: for IC50: curve of first compound; for viability, T/C: stronger effect = lower value
In short: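 Agents were dosed in half-log steps down from roughly clinical Cmax, or from 10 microM where Cmax was unknown, alone and with AhR antagonists. Read-out: percent test/control growth of tumor spheroids containing HUVEC and MSC stromal cells.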
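Also: spheroids exposed to compounds for seven days after three days of growth.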

IC50 (second compound 0.1 µM): 2030 nM
IC50 (second compound 0.316 µM): 1630 nM
IC50 (second compound 1 µM): 1390 nM
IC50 (second compound 3.16 µM): 607 nM
IC50 (second compound 10 µM): < 31.6 nM
SMILES: COc1ccc([C@@H](O)c2cc(-c3ncnc4cc(N5CCOCC5)ccc34)c(F)cc2Cl)nn1 + Cc1cncc(-c2nc(NCCc3c[nH]c4ccccc34)c3ncn(C(C)C)c3n2)c1
viability, T/C (second compound 0.1 µM, first compound 0.0316 µM): 81.6%
viability, T/C (second compound 0.1 µM, first compound 0.1 µM): 85.2%
viability, T/C (second compound 0.1 µM, first compound 0.316 µM): 68.8%
viability, T/C (second compound 0.1 µM, first compound 1 µM): 67.2%
viability, T/C (second compound 0.1 µM, first compound 3.16 µM): 39.9%
viability, T/C (second compound 0.1 µM, first compound 10 µM): 25.8%
viability, T/C (second compound 0.316 µM, first compound 0.0316 µM): 80.6%
viability, T/C (second compound 0.316 µM, first compound 0.1 µM): 78.2%
viability, T/C (second compound 0.316 µM, first compound 0.316 µM): 81%
viability, T/C (second compound 0.316 µM, first compound 1 µM): 59.7%
viability, T/C (second compound 0.316 µM, first compound 3.16 µM): 36.3%
viability, T/C (second compound 0.316 µM, first compound 10 µM): 26.2%
viability, T/C (second compound 1 µM, first compound 0.0316 µM): 77.7%
viability, T/C (second compound 1 µM, first compound 0.1 µM): 79%
viability, T/C (second compound 1 µM, first compound 0.316 µM): 62.4%
viability, T/C (second compound 1 µM, first compound 1 µM): 58.7%
viability, T/C (second compound 1 µM, first compound 3.16 µM): 36.3%
viability, T/C (second compound 1 µM, first compound 10 µM): 26%
viability, T/C (second compound 3.16 µM, first compound 0.0316 µM): 67.1%
viability, T/C (second compound 3.16 µM, first compound 0.1 µM): 58.5%
viability, T/C (second compound 3.16 µM, first compound 0.316 µM): 63.7%
viability, T/C (second compound 3.16 µM, first compound 1 µM): 40.2%
viability, T/C (second compound 3.16 µM, first compound 3.16 µM): 32.7%
viability, T/C (second compound 3.16 µM, first compound 10 µM): 23.1%
viability, T/C (second compound 10 µM, first compound 0.0316 µM): 42.7%
viability, T/C (second compound 10 µM, first compound 0.1 µM): 39.5%
viability, T/C (second compound 10 µM, first compound 0.316 µM): 42.2%
viability, T/C (second compound 10 µM, first compound 1 µM): 32.3%
viability, T/C (second compound 10 µM, first compound 3.16 µM): 25.2%
viability, T/C (second compound 10 µM, first compound 10 µM): 20.5%
